Assay results published in the NIST ThermoML archive (doi:10.1016/j.fluid.2006.06.013).
Numbers after ± are expanded uncertainties.

Experiments:
[1] = for vapor or sublimation pressure: Liquid
[2] = refractive index (Na D-line) (dimensionless); settings: 293.2 K; 101.33 kPa; Liquid; Standard Abbe refractometry

Structure (SMILES)	Normal melting temperature ([1]; Crystal, visual observation) [°C]	refractive index [2]	vapor or sublimation pressure ([1]; 417.59 K) [kPa]	vapor or sublimation pressure ([1]; 425.4 K) [kPa]	vapor or sublimation pressure ([1]; 435.12 K) [kPa]	vapor or sublimation pressure ([1]; 444.5 K) [kPa]	vapor or sublimation pressure ([1]; 454.9 K) [kPa]	vapor or sublimation pressure ([1]; 466.01 K) [kPa]	vapor or sublimation pressure ([1]; 475.82 K) [kPa]	vapor or sublimation pressure ([1]; 486.11 K) [kPa]	vapor or sublimation pressure ([1]; 496.11 K) [kPa]	vapor or sublimation pressure ([1]; 506.87 K) [kPa]	vapor or sublimation pressure ([1]; 516.84 K) [kPa]	vapor or sublimation pressure ([1]; 525.54 K) [kPa]
O=C1C=CC(=O)O1 [maleic anhydride]	52.5 ± 0.5													
COC(=O)c1ccccc1C(=O)OC [dimethyl 1,2-benzenedicarboxylate]		1.516 ± 0.001	0.934 ± 0.12	1.466 ± 0.13	2.21 ± 0.13	3.356 ± 0.13	5.164 ± 0.13	7.823 ± 0.14	11.13 ± 0.14	15.42 ± 0.15	20.93 ± 0.15	28.7 ± 0.17	38.16 ± 0.18	48.71 ± 0.2
